Columns and labels:
[1] = tested on: acetylation of histone H3 lysine 9 in the p16 genomic region; experiment: Genomic region-specific acetylation analysis (ChIP, anti-histone H3K9 acetyl antibody), p16 genomic region; format: cell-based, human; conditions: HeLa cells, 150 nM, 7 days; FIG. 10
Protocol: (§1) In a 10% fetal bovine serum-containing DMEM medium prepared to contain the synthesized compound (SAHA+p16 PIP or SAHA+non-targeting PIP) or SAHA at a final concentration of 150 nM, HeLa cells were cultured at 37° C. in the presence of 5% CO2 for 7 days. After culture, 5×10^6 to 1×10^7 confluent cells were harvested in 100 mm diameter cell culture dishes (Corning 430167) and then subjected to chromatin immunoprecipitation assay with a MILIPORE 17-295 Chromatin Immunoprecipitation (ChIP) assay kit.
(§2) The detailed procedures used are as follows. To the harvested cells cultured for 7 days, formalin was added at a final concentration of 1% and incubated at 37° C. for 10 minutes to fix the cells, whereby proteins and DNAs were crosslinked within the cells. Then, glycine was added at a final concentration of 0.25 M and the supernatant was removed, followed by washing the cell layer. Then, the cell layer was treated with 220 μl lysis buffer and the cell lysate was collected with a scraper. […] Real-time RT-PCR.” More specifically, the purified DNA was quantitatively analyzed with SYBR premix EX Taq (TAKARA BIO, Shiga, Japan) in a Thermal Cycler Dice Real-time System TP-800 (TAKARA BIO, Shiga, Japan). […]

[2] = tested on: acetylation of histone H3 lysine 9 in the genomic region of the LARP1 gene; experiment: Genomic region-specific acetylation analysis (ChIP, anti-histone H3K9 acetyl antibody), LARP1 gene region; format: cell-based, human; conditions: HeLa cells, 150 nM, 7 days; FIG. 10
Protocol: as §1, §2

[3] = tested on: histone deacetylase (HDAC); experiment: HDAC activity assay (HDAC Fluorimetric Assay/Drug Discovery Kit); format: biochemical, human; conditions: HDAC-containing HeLa cell nuclear fraction, 37°C for 1 hour, various concentrations; FIG. 2
Protocol: To verify whether the activity of histone deacetylase (HDAC) was inhibited by compounds composed of the synthesized SAHA derivatives and polyamides attached to each other, an HDAC Fluorimetric Assay/Drug Discovery Kit (BIOMOL international) was used in the experiment. Although details followed the instructions of the kit manufacturer, an HDAC-containing HeLa cell (human uterine cervical cancer cell line) nuclear fraction was added to an acetylation substrate and incubated at 37° C. for 1 hour in the presence of various concentrations of the synthesized compounds or trichostatin A (hereinafter referred to as TSA) used as a positive control, followed by addition of the developer included in the kit to stop the HDAC-catalyzed reaction. Then, the samples were transferred to a 96-well assay plate and measured with ARVO EX (Perkin Elmer) for emission at 460 nm from the reaction product upon excitation at 360 nm.

[4] = tested on: LOVO (human large bowel cancer cell line); experiment: Cell proliferation assay (WST-8) on LOVO cells; format: cell-based; conditions: 72 hours
Protocol: Next, the synthesized compounds were verified by WST-8 assay for their ability to suppress cancer cell proliferation.
Cell lines of HeLa (human uterine cervical cancer cell line), LOVO, RKO and SW480 (each of which was a human large bowel cancer cell line) were each cultured at 37° C. under 5% carbon dioxide conditions using Dulbecco's modified Eagle's medium (DMEM, Nacalai Tesque, Inc., Japan) supplemented with 10% fetal bovine serum (FBS: JRH bioscience, USA), antibiotics (50 U/ml penicillin and 50 μg/ml streptomycin) and 1 mM sodium pyruvate. […]
Each cell line seeded at 3×10^3 cells/well in a MICROTEST tissue culture plate (96 well, FALCON) was cultured at 37° C. under 5% carbon dioxide conditions for 24 hours, and then cultured in the presence of various concentrations of PI polyamide for an additional 72 hours. After completion of the culture, 10 μl of viable cell counting reagent SF (Nacalai Tesque, Inc., Japan) was added to each well and the absorbance at 450 nm was measured by ARVO EX (PerkinElmer). During the period from reagent addition until assay, incubation was continued at 37° C. in the presence of 5% CO2 until the absorbance reached about 1.2 to 2.0 in the control sample where only 50% DMSO was added to the cells.

CN(C)CCCNC(=O)CCNC(=O)c1cc(NC(=O)c2nc(NC(=O)c3nc(NC(=O)CCNC(=O)c4cc(NC(=O)c5nc(NC(=O)CCCNC(=O)c6cc(NC(=O)c7nc(NC(=O)CCNC(=O)c8cc(NC(=O)c9cc(NC(=O)c%10nc(NC(=O)CCNC(=O)CCNC(=O)c%11ccc(NC(=O)CCCCCCC(=O)NO)cc%11)cn%10C)cn9C)cn8C)cn7C)cn6C)cn5C)cn4C)cn3C)cn2C)cn1C [SAHA+p16 PIP, SAHA-ββImPyPyβImPyγImPyβImImPyβDp]
acetylation of histone H3 lysine 9 in the p16 genomic region [1]: enhanced acetylation | enhancement of histone H3 lysine 9 acetylation in the p16 genomic region compared to SAHA alone or SAHA+non-targeting PIP [1]: about 2 fold | acetylation of histone H3 lysine 9 in the genomic region of the LARP1 gene [2]: enhanced acetylation | enhancement of histone H3 lysine 9 acetylation in the LARP1 genomic region compared to SAHA alone or SAHA+non-targeting PIP [2]: about 2.5 fold | anti-HDAC activity [3]: confirmed to have anti-HDAC activity | suppression of LOVO cell proliferation at 100 nM ([4]; 100 nM, FIG. 4): not suppressed | inhibition of LOVO cell proliferation ([4]; WST-8, FIG. 4): inhibit proliferation
